Source: article PMC9532399, “The lysosomal transporter TAPL has a dual role as peptide translocator and phosphatidylserine floppase” (Nature Communications, 2022)

Columns and labels:
Type in all cases: biochemical
mouse TAPL ΔTMD0 [1] = target: T1, mouse TAPL ΔTMD0 (Mus musculus, UniProt Q9JJ59); experiment: Dithionite-based flip-flop (floppase) assay of NBD*-labeled lipids, ΔTMD0 proteoliposomes; settings: NBD*-labeled lipid; PE, PG, PC and cholesterol data not shown
T1 construct: thrombin cleavage site (C); eGFP (C); 10XHis (C); made in house; host or cells: Trichoplusia ni High Five (Hi5) insect cells, baculovirus (pVL1393)
T1 sequence (Q9JJ59 143-762): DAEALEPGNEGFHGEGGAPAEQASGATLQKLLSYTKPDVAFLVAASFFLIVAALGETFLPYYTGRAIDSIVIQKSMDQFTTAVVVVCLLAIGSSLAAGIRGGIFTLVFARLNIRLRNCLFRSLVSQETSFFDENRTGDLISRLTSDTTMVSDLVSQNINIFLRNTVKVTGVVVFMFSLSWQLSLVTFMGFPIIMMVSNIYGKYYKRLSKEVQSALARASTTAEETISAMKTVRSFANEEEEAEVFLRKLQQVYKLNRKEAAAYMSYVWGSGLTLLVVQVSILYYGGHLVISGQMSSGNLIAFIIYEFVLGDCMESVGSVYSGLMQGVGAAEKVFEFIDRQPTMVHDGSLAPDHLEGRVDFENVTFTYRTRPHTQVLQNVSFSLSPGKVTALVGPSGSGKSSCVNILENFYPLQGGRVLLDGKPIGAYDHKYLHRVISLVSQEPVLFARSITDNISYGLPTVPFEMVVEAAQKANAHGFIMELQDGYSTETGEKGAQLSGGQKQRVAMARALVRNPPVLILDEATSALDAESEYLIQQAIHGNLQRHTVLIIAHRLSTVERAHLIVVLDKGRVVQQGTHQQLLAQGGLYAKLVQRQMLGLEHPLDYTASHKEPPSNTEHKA
Description: All lipids used in reconstitution were purchased from Avanti Polar Lipids, Inc. (purity > 99%). The in vitro flip–flop assay was performed using NBD* dye-labeled proteoliposomes as described previously. Briefly, E. coli polar lipids and egg PC were mixed in a 1:1 molar ratio, and 0.5% (mol/mol) NBD*-lipid was added. The lipid mixture was then dried under nitrogen gas. The NBD*-lipids used were 18:1-06:0 NBD*-PS (1-oleoyl-2-{6-[(7-nitro-2-1,3-benzoxadiazol-4-yl)amino]hexanoyl}-sn-glycero-3-phosphoserine), 18:1-06:0 NBD*-PC (1-oleoyl-2-{6-[(7-nitro-2-1,3-benzoxadiazol-4-yl)amino]hexanoyl}-sn-glycero-3-phosphocholine), 18:1-06:0 NBD*-PG (1-oleoyl-2-{6-[(7-nitro-2-1,3-benzoxadiazol-4-yl)amino]hexanoyl}-sn-glycero-3-[phospho-rac-(1-glycerol)]), 18:1-06:0 NBD*-PE (1-oleoyl-2-{6-[(7-nitro-2-1,3-benzoxadiazol-4-yl)amino]hexanoyl}-sn-glycero-3-phosphoethanolamine), and 25-NBD*-Cholesterol (25-[N-[(7-nitro-2-1,3-benzoxadiazol-4-yl)methyl]amino]−27-norcholesterol). Thin lipid films were solubilized in 20 mM HEPES–NaOH pH 8.0, 200 mM NaCl and 5% (v/v) glycerol, incubated at RT for 30 min and subjected to 5 freeze–thaw cycles. After extrusion with a Mini-Extruder at 65 °C, final lipid concentrations were determined by phosphorus assays. Briefly, 10 μL of extruded lipid was added to 10 μL of 2% (w/v) ammonium molybdate and 300 μL of concentrated perchloric acid. The mixture was heated at 250 °C for 30 min, then cooled to RT and mixed with 1.5 mL of 0.4% (w/v) ammonium molybdate and 250 μL of 9% (w/v) L-ascorbic acid. It was again heated at 100 °C for 6 min and cooled to RT. Lipid concentrations were calculated from the absorbance at 820 nm using a standard curve prepared with NaH2PO4 solution. After accurately determining the lipid concentration, DM-purified protein and 5 mM lipid suspension (solubilized in 5 mM DM) were mixed 1:25 (w/w). After incubation at 4 °C for 1.5 h, DM detergent was removed with 75 mg Bio-beads SM-2 by periodic gentle shaking for 1 h at 4 °C (Supplementary Fig. 5a). The beads were replaced once, followed by an additional incubation at 4 °C for 2 h to completely remove detergent. The resulting proteoliposomes were collected by ultracentrifugation at 200,000×g for 1.5 h at 4 °C.
To measure the flip–flop activity, 10 μL of 2 mM NBD*-labeled proteoliposomes were added to 100 μL of reaction buffer (20 mM HEPES–NaOH pH 8.0, 200 mM NaCl, 5 mM ATP and 5% (v/v) glycerol) in the presence of 2 mM MgCl2 (or NaCl), and incubated at 37 °C for 1 h. The mixture was transferred to a 96-well plate and time-dependent fluorescence (λex/λem = 460/538 nm) was recorded every 30 s for 26 min using a fluorescence spectrophotometer (Gemini XPS). After the baseline fluorescence had stabilized, 10 mM sodium dithionite was added to quench the fluorescence of NBD*-lipid present in the outer leaflets of the liposomes. The initial rapid drop and subsequent slow decline in fluorescence intensity were monitored. When a new steady state was established, 1% (v/v) Triton X-100 was added to completely disrupt the liposomes. The net percentage of NBD*-lipid translocated across the lipid bilayer was calculated from the following equation[72]: the percentage of protected NBD*-lipid in the inner leaflet = [(FD−F0)/(FT−F0)]×100, and that of accessible NBD*-lipid in the outer leaflet = [(FT−FD)/(FT−F0)]×100, where FT is the total fluorescence of the sample before the addition of dithionite, FD is the fluorescence of the sample after quenching with dithionite, and F0 is any residual fluorescence of the sample after solubilization with Triton X-100. Fluorescence values (FT, FD, F0) were calculated as the averages of 5 points on the respective plateau lines. The ΔTMD0-mediated lipid floppase activity was determined by subtracting the percentage of NBD*-lipid fluorescence measured in the presence of Na^+/ATP from that measured in the presence of Mg^2+/ATP.

mouse TAPL ΔTMD0 [2] = target: T1, mouse TAPL ΔTMD0; experiment: NADH-coupled ATPase assay, DM-purified ΔTMD0; settings: for ATP hydrolysis in presence of ATP analogs: in the presence of 9-mer peptide
Description: (§1) The ATPase activities of proteins obtained after various purification procedures were determined by NADH-coupled spectrophotometric assays. 10 μg of DM-purified or nanodisc-reconstituted protein was added to 140 μL of reaction buffer containing 50 mM HEPES–KOH pH 8.0, 60 μg/mL pyruvate kinase (Roche), 16 μg/mL lactate dehydrogenase (Roche), 10 mM phosphoenolpyruvate (Roche), 0.3 mM NADH, 3 mM ATP, 10 mM MgCl2, and 0.17% (w/v) DM in the presence or absence of 250 μM peptide. For proteins reconstituted into nanodiscs, DM was not added to the reaction buffer. For lipid-stimulated ATPase assays, the thin film of lipids was hydrated in 100 μL of buffer containing 50 mM HEPES–KOH pH 8.0 and 10 mM MgCl2 to yield a 10 mM solution. After sonication of the lipid solution for 10 min to decrease its turbidity, the reaction was initiated by adding varying concentrations of lipids to the mixture. ATP hydrolysis activity was monitored at 37 °C for 3 min by measuring the rate of decline of NADH absorbance at 340 nm. To inhibit ATP hydrolysis, the reaction mixture was incubated with 3 mM AMP-PNP or 8 mM NaF/2 mM BeSO4 for 5 min at RT. The kinetic parameters of ATP hydrolysis were calculated by fitting the initial rates of ATP hydrolysis to the Michaelis–Menten equation using PRISM 4.0 (GraphPad software).

mouse TAPL ΔTMD0 [3] = target: T1, mouse TAPL ΔTMD0; experiment: Lipid-stimulated ATPase assay, DM-purified ΔTMD0; settings: lipid stimulation, 3 mM ATP
Description: as §1

mouse TAPL ΔTMD0 [4] = target: T1, mouse TAPL ΔTMD0; experiment: Peptide transport assay, ΔTMD0 proteoliposomes; settings: for reduction of peptide transport: 5-IAF-labeled peptide, ATP-dependent, relative to 9-mer; for Transport activity: peptide 10 mM (sic), + 3 mM ATP
Description: Proteoliposomes for peptide transport assays were prepared according to the protocol of Zhao et al., with some modifications. Briefly, E. coli polar lipid extract dissolved in chloroform was dried under a gentle stream of nitrogen. The thin film of lipids was placed under a desiccator overnight to completely remove residual chloroform and then hydrated in 1X PBS buffer pH 7.4 (137 mM NaCl, 2.7 mM KCl, 8 mM Na2HPO4, and 2 mM KH2PO4) with 10 mM MgCl2 and 5% (v/v) glycerol. After water bath sonication at 22 °C for 5 min (Powersonic 610, KLEENTEK), the lipid solution was extruded using a Mini-Extruder equipped with a polycarbonate membrane filter (200 nm pore) (Avanti Polar Lipids, Inc.) to obtain unilamellar vesicles, which were destabilized with 0.36% (w/v) DM. The DM-purified protein and lipid suspension were mixed in a 1:50 (w/w) ratio. After incubation at 4 °C for 2 h, the mixture was treated with Bio-Beads SM-2 resin (60 and 120 mg, see above) at 4 °C for a total of 18 h to remove detergent. The proteoliposomes were collected by centrifugation at 200,000×g for 1.5 h at 4 °C and resuspended in the buffer described above.
The peptide transport activity of ΔTMD0 was measured as described previously. Briefly, 50 μL of ΔTMD0-loaded proteoliposomes (~0.6 μg protein) were added into 200 μL reaction buffer containing 1X PBS pH 7.4, 3 mM ATP, and 10 mM MgCl2 in the presence or absence of 10 μM 5-IAF-labeled peptides. To investigate transport activity, the mixture was incubated at 37 °C for 10 min. The reaction was terminated by incubating the mixture for 20 min on ice. Proteoliposomes were collected by centrifugation at 200,000×g for 30 min and then washed twice with 1X PBS. The proteoliposomes were completely disrupted by adding 10% (w/v) SDS solution (final concentration, 2%). The transported peptide was measured using a microplate reader (Gemini XPS) with excitation at 485 nm and emission at 520 nm.

[5] = 9-mer + ATP set at 100%, 37 °C 10 min, mean n=3

CCCCCCCC/C=C\CCCCCCCC(=O)OC[C@H](COP(=O)([O-])OCC[N+](C)(C)C)OC(=O)CCCCCNc1ccc([N+](=O)[O-])c2nonc12 [NBD*-PC, 1-oleoyl-2-{6-[(7-nitro-2-1,3-benzoxadiazol-4-yl)amino]hexanoyl}-sn-glycero-3-phosphocholine]
ATP-dependent lipid transport by ΔTMD0 (mouse TAPL ΔTMD0 [1]): very low

Nc1ncnc2c1ncn2[C@@H]1O[C@H](COP(=O)(O)OP(=O)(O)OP(=O)(O)O)[C@@H](O)[C@H]1O [ATP]
Vmax (mouse TAPL ΔTMD0 [2]; basal ATPase activity, DM-purified ΔTMD0): 394 ± 10 nmol/mg/min | Km (mouse TAPL ΔTMD0 [2]; basal ATPase activity, DM-purified ΔTMD0, read-out: Km for ATP): 497 ± 61 µM

Nc1ncnc2c1ncn2[C@@H]1O[C@H](COP(=O)(O)OP(=O)(O)NP(=O)(O)O)[C@@H](O)[C@H]1O [AMP-PNP]
ATP hydrolysis in presence of ATP analogs (mouse TAPL ΔTMD0 [2]): prevented ATP hydrolysis

ADP·BeF3
ATP hydrolysis in presence of ATP analogs (mouse TAPL ΔTMD0 [2]): prevented ATP hydrolysis

CCCCCCCC/C=C\CCCCCCCC(=O)OC[C@H](COP(=O)(O)OCC(O)CO)OC(=O)CCCCCNc1ccc([N+](=O)[O-])c2nonc12 (mixture of isomers) [NBD*-PG, 1-oleoyl-2-{6-[(7-nitro-2-1,3-benzoxadiazol-4-yl)amino]hexanoyl}-sn-glycero-3-[phospho-rac-(1-glycerol)]]
ATP-dependent lipid transport by ΔTMD0 (mouse TAPL ΔTMD0 [1]): very low

CC(CCC[C@@H](C)[C@@H]1CC[C@H]2[C@@H]3CC=C4C[C@@H](O)CC[C@]4(C)[C@H]3CC[C@@]21C)N(C)c1ccc([N+](=O)[O-])c2nonc12 (some centres unmarked) [NBD*-cholesterol, 25-[N-[(7-nitro-2-1,3-benzoxadiazol-4-yl)methyl]amino]−27-norcholesterol]
ATP-dependent lipid transport by ΔTMD0 (mouse TAPL ΔTMD0 [1]): failed to detect ΔTMD0-mediated translocation

CCCCCCCC/C=C\CCCCCCCC(=O)OC(COC(=O)CCCCCCCCCCCCCCC)COP(=O)([O-])OCC[N+](C)(C)C (centres unmarked) [POPC, 1-palmitoyl-2-oleoyl-glycero-3-phosphocholine]
maximal ATPase activity (turnover) (mouse TAPL ΔTMD0 [3]): 88 min⁻¹ | maximal ATPase activity (Vmax) (mouse TAPL ΔTMD0 [3]; means ± SEM): 649 ± 35 nmol/mg/min

CCCCCCCC/C=C\CCCCCCCC(=O)OC[C@H](COP(=O)(O)OCCN)OC(=O)CCCCCNc1ccc([N+](=O)[O-])c2nonc12 [NBD*-PE, 1-oleoyl-2-{6-[(7-nitro-2-1,3-benzoxadiazol-4-yl)amino]hexanoyl}-sn-glycero-3-phosphoethanolamine]
ATP-dependent lipid transport by ΔTMD0 (mouse TAPL ΔTMD0 [1]): very low

RRYQNSTELRRYQNSTC^5-IAFL [18-mer, 5-IAF-labeled 18-mer peptide]
reduction of peptide transport (mouse TAPL ΔTMD0 [4]): 90% | Transport activity (mouse TAPL ΔTMD0 [4]; [5]): 10.0006% | Transport activity (mouse TAPL ΔTMD0 [4]; replicate I): 11.6836% | Transport activity (mouse TAPL ΔTMD0 [4]; replicate II): 10.1438% | Transport activity (mouse TAPL ΔTMD0 [4]; replicate III): 8.174%

CCCCCCCC/C=C\CCCCCCCC(=O)O[C@H](COC(=O)CCCCCCCCCCCCCCC)COP(=O)(O)OCC(O)CO (mixture of isomers) [POPG, 1-palmitoyl-2-oleoyl-sn-glycero-3-phospho-(1’-rac-glycerol)]
maximal ATPase activity (turnover) (mouse TAPL ΔTMD0 [3]): 155 min⁻¹ | Km (mouse TAPL ΔTMD0 [3]; means ± SEM): 105 ± 16 µM | maximal ATPase activity (Vmax) (mouse TAPL ΔTMD0 [3]; means ± SEM): 1147 ± 41 nmol/mg/min

RRYQNSTELRRYQNSTELNSTC^5-IAFL [23-mer, 5-IAF-labeled 23-mer peptide]
reduction of peptide transport (mouse TAPL ΔTMD0 [4]): 80% | Transport activity (mouse TAPL ΔTMD0 [4]; [5]): 20.2607% | Transport activity (mouse TAPL ΔTMD0 [4]; replicate I): 20.4488% | Transport activity (mouse TAPL ΔTMD0 [4]; replicate II): 15.9535% | Transport activity (mouse TAPL ΔTMD0 [4]; replicate III): 24.3798%
